Measured values as given in patent publication US8834907B2, “Active nanocomposite materials and production method thereof” (Nanobiomatters, S.L., priority 2008, dated 2014).

System: Salmonella
Details: used in suspension
Description: To evaluate the antimicrobial capacity of PLA films, 600 mg of film were weighed, for both control without clay and for the sample with antimicrobial clay, and placed into 10 mL of sterile culture medium. They were stored at 4° C. for four weeks, prior to inoculation with Salmonella spp.

Compound: O=[N+]([O-])[O-].[Ag+] [silver nitrate]
- minimum bactericidal concentration (reducing the population to zero): around 100 ppm
